Each structure is given as a SMILES string. Like-named read-outs stand apart in the source and are kept apart here.

The test system of data set [1] is indomethacin-induced gastric damage. The data set can be described thus: Inhibition of indomethacin-induced gastric damage in the rat (anti-ulcer activity, method of Elegbe). In kind it is in vivo. To be noted: po, 5 h, indomethacin 15 mg/kg s.c., compound 100 mg/kg orally, 30 min prior to and 2 h post indomethacin, read-out: Table 1 % Inhibition (mean inhibition of gastric damage). The method, then: This was assessed by the inhibition of indomethacin-induced gastric damage in the rat according to the method of Elegbe (Israeli J. Med. Sci. (1974), 10, 1451).
Rats were starved overnight, given indomethacin subcutaneously (15 mg/kg) and sacrificed 5 hours later. Stomachs were inflated with 0.9% saline, cut along the greater curvature, pinned out and scored for gastric damage by the following system:
Score 1-3 according to the degree of erythema and slight haemorrhage.
Score 4-6 according to degree of mucosal erosion.
Score 7-9 according to depth of gastric damage.
Groups of 7 rats were used for each treatment level of compound, and a similar group receiving vehicle only was set up on each occasion of testing. Compound or vehicle was administered orally 30 minutes prior to, and at 2 hours post, dosing with indomethacin. Mean values per treatment were obtained using the above scoring system and the Mann Witney test applied for significance between such values. The mean inhibition of gastric damage from a number of experiments is shown in the following Table 1; the dosage being 100 mg/kg orally.

The subject of data set [2] is gastric secretion. Kind of data set: Effects on gastric secretion in the pyloric ligated rat (method of Shay et al.). The class given is in vivo. Conditions: intraduodenal, 100 mg/kg i.d., sacrificed 3 hours later. The method, then:
2. Effects on Gastric Secretion, in the Pyloric Ligated Rat
The method described by Shay, et al. (Gastroenterol (1945) 26, 906) was used. After overnight starvation the pylorus of a rat was ligated under halothane anaesthesia, the Compound vehicle only administered intraduodenally and the rats allowed to recover. They were sacrificed 3 hours later and the gastric juice removed. After measurement of the volume of secretion, its hydrogen ion concentration, [H^+ ], was determined by titration with 0.05 N NaOH to pH 7. Groups of 4-6 animals were used for each treatment and the inhibitory effect of the Compound was ascertained by comparison of the mean values obtained with those from a simultaneously set up control group of animals which received vehicle only. Students `t` test was applied for significance between groups. The mean values for % inhibition obtained for a number of experiments are shown in the following Table 2, the dosage being 100 mg/kg i.d.

A short description of data set [3]: Acute toxicity in mice. Conditions: mouse, in vivo. The method, then:
(§1) 5 (Z-isomer) up to 536 or 824 mg/kg in mice and rats respectively. The acute oral median lethal dose of compound no. 5 is 1268 mg/kg in male mice and 2311 mg/kg in male rats.

The nature of data set [4]: Acute toxicity in rats. Conditions: rat, in vivo. As for the experimental part:
as §1

Data set [5] concerns gastric secretion. The data set can be described thus: Effects on gastric secretion in the pyloric ligated rat (method of Shay et al.). To be noted: intraduodenal, 50 mg/kg i.d., sacrificed 3 hours later. The class given is in vivo.
Where [6] appears, read: read-out: Table 2 % Inhibition Volume (volume of gastric secretion).
The mark [7] stands for this setting: read-out: Table 2 % Inhibition [H^+ ] (hydrogen ion concentration).

Regarding `CO/N=C(/C#N)c1cnccn1` [5 (E-isomer), α-Methoxyiminopyrazineacetonitrile], the inhibition in vivo at 100 mg/kg in data set [1] is 96%.

With `CO/N=C(\C#N)c1cnccn1` [5 (Z-isomer), α-Methoxyiminopyrazineacetonitrile], the inhibition in vivo at 100 mg/kg amounted to 94% in data set [1], 70% in data set [2] (setting [6]) and 73% in data set [2] (setting [7]). The NOAEL in data set [3] (mice, single doses, read-out: Single dose up to which no adverse effects were seen) was at least 536 mg/kg; in data set [4] (rats, single doses, read-out: Single dose up to which no adverse effects were seen) it was at least 824 mg/kg.

Consider `CON=C(C#N)c1ccccn1` [6 a], for which the inhibition in vivo at 100 mg/kg in data set [1] and in data set [2] (setting [6]) was 62% in each case.

On to `CON=C(C#N)c1cccc(Cl)n1` [6 aa], for which the inhibition in vivo at 100 mg/kg in data set [2] (setting [6]) was determined as 35%; in data set [2] (setting [7]), 23%.

As to `CCO/N=C(\C#N)c1cnccn1` [6 b], the values for the inhibition in vivo at 100 mg/kg in data set [1], in data set [2] (setting [6]) and in data set [2] (setting [7]) were 68%, 66% and 60%, respectively.

Regarding `CON=C(C#N)c1cccnc1` [6 bb], the inhibition in vivo at 100 mg/kg in data set [1] amounted to 72%.

Regarding `CC(C)O/N=C(\C#N)c1cnccn1` [6 c], the inhibition in vivo at 100 mg/kg in data set [1] turned out to be 43%; in data set [2] (setting [6]), 52%.

As for `CON=C(C#N)c1ccncc1` [6 cc], the inhibition in vivo at 100 mg/kg in data set [1] is 95%; in data set [2] (setting [6]), 80%; in data set [2] (setting [7]), 39%.

As to `CCCCO/N=C(\C#N)c1cnccn1` [6 d], the inhibition in vivo at 100 mg/kg in data set [1] stood at 50%.

For `CON=C(C#N)c1cncnc1` [6 dd], the inhibition in vivo at 100 mg/kg in data set [1] is 77%; in data set [2] (setting [6]) it was 35%; in data set [2] (setting [7]), 39%.

Take `N#C/C(=N\OC1CCCCC1)c1cnccn1` [6 e]: the inhibition in vivo at 100 mg/kg in data set [2] (setting [6]) amounted to 62%; in data set [2] (setting [7]), 48%.

Take `CO/N=C(\C#N)c1ccc2ccccc2n1` [6 ee]: the inhibition in vivo at 100 mg/kg was determined as 84% in data set [1] and 28% in data set [2] (setting [6]).

Take `CO/N=C(\C#N)c1ccc2cc(C)ccc2n1` [6 ff]: in data set [1], the inhibition in vivo at 100 mg/kg came to 42%.

With `CO/N=C(\C#N)c1ccc2ccc(C)cc2n1` [6 gg], in data set [1], the inhibition in vivo at 100 mg/kg worked out at 42%.

As to `CO/N=C(\C#N)c1ccnc2ccccc12` [6 ll], the inhibition in vivo at 100 mg/kg in data set [1] was 85%; in data set [2] (setting [6]) it was 85%; in data set [2] (setting [7]), 23%.

With `CO/N=C(\C#N)c1nccc2ccccc12` [6 mm], the values for the inhibition in vivo at 100 mg/kg in data set [1] and in data set [2] (setting [6]) were 42% and 28%, respectively.

For `CO/N=C(\C#N)c1cnc2ccccc2n1` [6 nn], the inhibition in vivo at 100 mg/kg in data set [1] was determined as 79%; in data set [2] (setting [6]) it was 28%.

Consider `CO/N=C(/C#N)c1cnc2ccccn12` [6 qq], for which the inhibition in vivo at 100 mg/kg in data set [1] was found to be 100%; in data set [2] (setting [6]), 77%; in data set [2] (setting [7]) it was 29%.

As for `CO/N=C(\C(N)=S)c1ccccn1` [8 (and 10), α-Methoxyimino-2-pyridinethioacetamide], in data set [1], the inhibition in vivo at 100 mg/kg turned out to be 74%. Further, the inhibition in vivo at 50 mg/kg came to 32% in data set [5] (setting [6]) and 24% in data set [5] (setting [7]).

Regarding `CO/N=C(\C(N)=O)c1ccccn1` [9 b], the inhibition in vivo at 100 mg/kg in data set [1] is 56%; in data set [2] (setting [6]), 26%.

`CO/N=C(/C(N)=O)c1ccccn1` [9 c]: the inhibition in vivo at 100 mg/kg came to 65% in data set [1] and 40% in data set [2] (setting [6]).

As for `CON=Cc1cnccn1` [12 (and 13), Pyrazine carboxaldehyde, O-methyl oxime], the inhibition in vivo at 100 mg/kg in data set [1] was determined as 66%; in data set [2] (setting [6]), 42%.

As for `CO/N=C(\C#N)c1c[n+]([O-])ccn1` [14 a], the values for the inhibition in vivo at 100 mg/kg in data set [1], in data set [2] (setting [6]) and in data set [2] (setting [7]) were 91%, 50% and 34%, respectively.

For `CON=C(C#N)c1cnccn1` [Compound 5, α-Methoxyiminopyrazineacetonitrile], the LD50 in data set [3] (male mice, oral, read-out: Acute oral median lethal dose) is 1270 mg/kg; in data set [4] (male rats, oral, read-out: Acute oral median lethal dose), 2310 mg/kg.

As for `CON=C(c1ccccn1)C(F)(F)F` [Compound 7, 2-Pyridinyl trifluoromethyl ketone, O-methyl oxime], the results for the inhibition in vivo at 100 mg/kg in data set [2] (setting [6]) and in data set [2] (setting [7]) were 74% and 33%, respectively.

Take `CO/N=C(\C#N)c1c[n+](C)ccn1` [Compound 15, α-Methoxyimino-2-pyrazineacetonitrile-4-methiodide]: the inhibition in vivo at 100 mg/kg in data set [1] came out at 55%.
